In US20070093520A1, “Method of treatment of diarrhea-predominant irritable bowel syndrome in a subject” (priority 2005, published 2007):

Tested on: diarrhea-predominant IBS subjects
Assay: 3007 Study: open-label 52-week safety study, adverse events and withdrawals
Conditions: P/C group

Cc1nccn1C[C@H]1CCc2c(c3cccc4c3n2CCC4)C1=O [cilansetron, (R)-(−)-4,5,6,8,9,10-hexahydro-10-[(2-methyl-1H-imidazol-1-yl)methyl]-11H-pyrido-[3,2,1-jk]-carbazol-11-one]
TEAE: Lymphangitis and Lymphatic Disorders NEC: 1 (<1%) n (%)
TEAE: Meniere's Disease: 0 n (%)
TEAE: Menorrhagia*: 1 (<1%) n (%)
TEAE: Menstruation Irregular*: 1 (<1%) n (%)
TEAE: Menstruation and Uterine Bleeding NEC*: 1 (<1%) n (%)
TEAE: Menstruation with Decreased Bleeding*: 0 n (%)
TEAE: Menstruation with Increased Bleeding*: 1 (<1%) n (%)
TEAE: Mental Disorders NEC: 1 (<1%) n (%)
TEAE: Mental Status Changes: 1 (<1%) n (%)
TEAE: Metabolism and Nutrition Disorders: 10 (4%) n (%)
TEAE: Middle Ear Disorders NEC: 0 n (%)
TEAE: Motion Sickness: 1 (<1%) n (%)
TEAE: Myocardial Infarction: 0 n (%)
TEAE: Nail and Nail Bed Conditions (Excl Infections and Infestations): 1 (<1%) n (%)
TEAE: Nasal Congestion and Inflammations: 1 (<1%) n (%)
TEAE: Neoplasms Benign Site Unspecified NEC: 1 (<1%) n (%)
TEAE: Neoplasms Benign, Malignant and Unspecified (Incl Cysts and Polyps): 6 (2%) n (%)
TEAE: Normal Pregnancy, Labour and Delivery*: 0 n (%)
TEAE: Ocular Disorders NEC: 1 (<1%) n (%)
TEAE: Ocular Nerve and Muscle Disorders: 2 (<1%) n (%)
TEAE: Oedema NEC: 3 (1%) n (%)
TEAE: Oedema NOS: 1 (<1%) n (%)
TEAE: Oedema Peripheral: 2 (<1%) n (%)
TEAE: Ovarian Cancer NOS*: 0 n (%)
TEAE: Ovarian Cystadenofibroma*: 1 (<1%) n (%)
TEAE: Ovarian Neoplasms Benign*: 1 (<1%) n (%)
TEAE: Ovarian Neoplasms Malignant (Excl Germ Cell)*: 0 n (%)
TEAE: Pain NOS: 1 (<1%) n (%)
TEAE: Pain and Discomfort NEC: 7 (3%) n (%)
TEAE: Palpitations: 2 (<1%) n (%)
TEAE: Panic Attack: 1 (<1%) n (%)
TEAE: Panic Symptoms: 1 (<1%) n (%)
TEAE: Papulosquamous Conditions: 1 (<1%) n (%)
TEAE: Paranasal Sinus Disorders (Excl Infections and Neoplasms): 3 (1%) n (%)
TEAE: Paranasal Sinus Hypersecretion: 0 n (%)
TEAE: Partial Vision Loss: 1 (<1%) n (%)
TEAE: Pelvic Pain NOS: 2 (<1%) n (%)
TEAE: Penile Disorders NEC (Excl Erection and Ejaculation)*: 1 (1%) n (%)
TEAE: Penile Haemorrhage*: 1 (1%) n (%)
TEAE: Perception Disturbances: 1 (<1%) n (%)
TEAE: Peripheral Embolism NOS: 1 (<1%) n (%)
TEAE: Peripheral Embolism and Thrombosis: 1 (<1%) n (%)
TEAE: Peripheral Vascular Disorders NEC: 0 n (%)
TEAE: Pharyngitis: 3 (1%) n (%)
TEAE: Polydipsia: 1 (<1%) n (%)
TEAE: Polyuria: 1 (<1%) n (%)
TEAE: Posterior Capsule Opacification: 1 (<1%) n (%)
TEAE: Postnasal Drip: 1 (<1%) n (%)
TEAE: Pregnancy NOS*: 0 n (%)
TEAE: Pregnancy, Puerperium and Perinatal Conditions: 0 n (%)
TEAE: Premenopause*: 1 (<1%) n (%)
TEAE: Premenstrual Syndrome*: 0 n (%)
TEAE: Productive Cough: 0 n (%)
TEAE: Prostate and Seminal Vesicles Infections and Inflammations*: 1 (1%) n (%)
TEAE: Prostatitis*: 1 (1%) n (%)
TEAE: Proteinuria: 0 n (%)
TEAE: Pruritus NEC: 1 (<1%) n (%)
TEAE: Pruritus NOS: 1 (<1%) n (%)
TEAE: Psoriasis: 1 (<1%) n (%)
TEAE: Psychiatric Disorders: 17 (6%) n (%)
TEAE: Psychotic Disorder NEC: 1 (<1%) n (%)
TEAE: Psychotic Disorder NOS: 1 (<1%) n (%)
TEAE: Purine Metabolism Disorders NEC: 0 n (%)
TEAE: Pyrexia: 1 (<1%) n (%)
TEAE: Rash Macular: 2 (<1%) n (%)
TEAE: Rash NOS: 2 (<1%) n (%)
TEAE: Rashes, Eruptions and Exanthems NEC: 4 (1%) n (%)
TEAE: Rate and Rhythm Disorders NEC: 2 (<1%) n (%)
TEAE: Refractive Errors NOS: 0 n (%)
TEAE: Refractive and Accommodative Disorders: 0 n (%)
TEAE: Renal Lithiasis: 0 n (%)
TEAE: Renal and Urinary Disorders: 4 (1%) n (%)
TEAE: Reproductive System and Breast Disorders: 12 (4%) n (%)
TEAE: Reproductive Tract Signs and Symptoms NEC: 2 (<1%) n (%)
TEAE: Respiratory Tract Congestion: 1 (<1%) n (%)
TEAE: Respiratory Tract Disorders NEC: 1 (<1%) n (%)
TEAE: Respiratory, Thoracic and Mediastinal Disorders: 18 (6%) n (%)
TEAE: Retinal Detachment: 0 n (%)
TEAE: Retinal Structural Change, Deposit and Degeneration: 0 n (%)
TEAE: Rhinitis Allergic NOS: 1 (<1%) n (%)
TEAE: Rhinitis NOS: 0 n (%)
TEAE: Rhinitis Seasonal: 0 n (%)
TEAE: Rosacea: 0 n (%)
TEAE: Rosaceas: 0 n (%)
TEAE: Seasonal Allergy: 1 (<1%) n (%)
